Experimental data published in patent publication US20020115867A1, “Imidazolyl/benzimidazolyl-terminated alkylamino ethynyl alanine amino diol compounds for treatment of hypertension” (priority 1992, published 2002).

Target: T1, human renin (Homo sapiens, UniProt P00797)
T1 construct: purchased National Institute for Biological Standards, London
T1 sequence (P00797 67-406): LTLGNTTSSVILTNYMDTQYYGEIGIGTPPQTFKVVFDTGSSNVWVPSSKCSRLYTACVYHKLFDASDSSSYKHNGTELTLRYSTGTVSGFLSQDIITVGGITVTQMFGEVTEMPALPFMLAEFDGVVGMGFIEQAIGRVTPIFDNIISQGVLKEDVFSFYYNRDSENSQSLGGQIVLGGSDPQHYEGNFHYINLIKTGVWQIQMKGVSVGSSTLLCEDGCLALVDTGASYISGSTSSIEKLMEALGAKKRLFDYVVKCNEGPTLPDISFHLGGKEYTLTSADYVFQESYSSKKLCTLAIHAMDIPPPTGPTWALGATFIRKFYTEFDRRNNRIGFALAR
Assay: Human renin inhibition in vitro
Assay type: biochemical
Settings: human plasma angiotensinogen, pH 7.4, 37° C., two hours; angiotensin I by radioimmunoassay
Description: Compounds of Formula I were evaluated as inhibitors of human renin in an in vitro assay, as follows: This human renin inhibition test has been previously described in detail [Papaioannou et al., Clinical and Experimental Hypertension, A7(9), 1243-1257 (1985)]. Human renin was obtained from the National Institute for Biological Standards, London. An incubation mixture was prepared containing the following components: in a total volume of 0.25 mL: 100 mM Tris-acetate buffer at pH 7.4, 25×10^−6 Goldblatt units of renin, 0.05 mL of plasma from human volunteers taking oral contraceptives, 6.0 mM Na-EDTA, 2.4 mM phenylmethyl sulfonyl fluoride, 1.5 mM 8-hydroxyquinoline, 0.4 mg/mL bovine serum albumin (BSA), and 0.024 mg/mL neomycin sulfate. This mixture was incubated for two hours at 37° C. in the presence or absence of renin inhibitors. The produced angiotensin I was determined by radioimmunoassay (New England Nuclear kit). Test compounds to be assayed were dissolved in DMSO and diluted with 100 mM Tris-acetate buffer at pH 7.4 containing 0.5% BSA to the appropriate concentration. The final concentration of organic solvent in the reaction mixture was less than 1%. Control incubations at 37° C. were used to correct for effects of organic solvent on renin activity.

IC50: 0.18 nM
Structure (SMILES): C#CC[C@H](NC(=O)[C@@H](CC(=O)N(C)CCn1ccnc1)Cc1ccccc1)C(=O)N[C@@H](CC1CCCCC1)[C@@H](O)[C@@H](O)CC(C)C (relative stereo) [Example 1, N^1-[1R*-[[[1S,1R*-(cyclohexylmethyl)-2S*,3R*-dihydroxy-5-methylhexyl]amino]carbonyl]-3-butynyl]-N^4-[2-(1H-imidazol-1-yl)ethyl]-N^4-methyl-2S*-(phenylmethyl)butanediamide]
